Reference: patent US6451833B1, “N-substituted (α-imidazolyl-toluyl)pyrrole compounds for treatment of circulatory disorders” (Pharmacia Corporation, priority 1991, dated 2002)

Columns and labels:
AII pressor response = assay: Assay C: In Vivo Intraduodenal Pressor Assay Response for AII Antagonists; design: species or system rat; settings: anesthetized Sprague-Dawley rats, 30 mg/kg i.d.; for Assay C Inhibition: inhibition of AII pressor response; for Assay C Duration: time from peak percent inhibition to 50% of peak
Protocol: Male Sprague-Dawley rats weighing 225-300 grams were anesthetized with Inactin (100 mg/kg, i.p.) and catheters were implanted into the trachea, femoral artery, femoral vein and duodenum. Arterial pressure was recorded from the femoral artery catheter on a Gould chart recorder (Gould, Cleveland, Ohio). The femoral vein catheter was used for injections of angiotensin II, mecamylamine and atropine. The tracheal catheter allows for airway patency, and the duodenal catheter was used for intraduodenal (i.d.) administration of test compounds. After surgery, the rats were allowed to equilibrate for 30 minutes. Mecamylamine (3 mg/kg, 0.3 ml/kg) and atropine (400 ug/kg, 0.3 ml/kg) were then given i.v. to produce ganglion blockade. These compounds were administered every 90 minutes throughout the test procedure. Angiotensin II was given in bolus doses i.v. (30 ng/kg in saline with 0.5% bovine serum albumin, 0.1 ml/kg) every 10 minutes three times or until the increase in arterial pressure produced was within 3 mmHg for two consecutive AII injections. The last two AII injections were averaged and were taken as the control AII pressor response. Ten minutes after the final control AII injection, the test compound (dissolved in sodium bicarbonate) was administered i.d. at a dose of 30 mg/kg in a volume of 0.2 ml. Angiotensin II injections were then given 5, 10, 20, 30, 45, 60, 75, 90, and 120 minutes after administration of the test compound and response of arterial pressure was monitored. The response to AII was calculated as percent of the control response and then the percent inhibition is calculated as 100 minus the percent control response. Duration of action of a test compound was defined as the time from peak percent inhibition to 50% of peak. One compound at one dose was tested in each rat. Each test compound was tested in two rats and the values for the two rats were averaged.

[1] = target: smooth muscle angiotensin II receptor; assay: Assay A: Angiotensin II Binding Activity; settings: displacement of 125I-AII, rat uterine membrane preparation
Protocol: Compounds of the invention were tested for ability to bind to the smooth muscle angiotensin II receptor using a rat uterine membrane preparation. […] Other chemicals were obtained from Sigma Chemical Co. This assay was carried out according to the method of Douglas et al [Endocrinology, 106, 120-124 (1980)]. Rat uterine membranes were prepared from fresh tissue. All procedures were carried out at 4° C. Uteri were stripped of fat and homogenized in phosphate-buffered saline at pH 7.4 containing 5 mM EDTA. The homogenate was centrifuged at 1500×g for 20 min., and the supernatant was recentrifuged at 100,000×g for 60 min. The pellet was resuspended in buffer consisting of 2 mM EDTA and 50 mM Tris-HCl (pH 7.5) to a final protein concentration of 4 mg/ml. […] The reaction was initiated by the addition of membrane protein and the mixture was incubated at 25° C. for 60 min. The incubation was terminated with ice-cold 50 mM Tris-HCl (pH 7.5) and the mixture was filtered to separate membrane-bound labelled peptide from the free ligand. The incubation tube and filter were washed with ice-cold buffer. Filters were assayed for radioactivity in a Micromedic gamma counter. […] Specific binding was calculated as total binding minus nonspecific binding. […] Binding data were analyzed by a nonlinear least-squares curve fitting program.

rabbit aortic rings = assay: Assay B: In Vitro Vascular Smooth Muscle Response for AII; settings: test antagonist at 10^-5 M, AII contraction
Protocol: The compounds of the invention were tested for antagonist activity in rabbit aortic rings. Male New Zealand white rabbits (2-2.5 kg) were sacrificed using an overdose of pentobarbital and exsanguinated via the carotid arteries. The thoracic aorta was removed, cleaned of adherent fat and connective tissue and then cut into 3-mm ring segments. The endothelium was removed from the rings by gently sliding a rolled-up piece of filter paper into the vessel lumen. The rings were then mounted in a water-jacketed tissue bath, maintained at 37° C., between moveable and fixed ends of a stainless steel wire with the moveable end attached to an FT03 Grass transducer coupled to a Model 7D Grass Polygraph for recording isometric force responses. […] The preparations were equilibrated for one hour before approximately one gram of passive tension was placed on the rings. Angiotensin II concentration-response curves were then recorded (3×10^−10 to 1×10^−5 M). Each concentration of AII was allowed to elicit its maximal contraction, and then AII was washed out repeatedly for 30 minutes before rechallenging with a higher concentration of AII. Aorta rings were exposed to the test antagonist at 10^−5 M for 5 minutes before challenging with AII. […] Each test antagonist was evaluated in aorta rings from two rabbits.

CCCCc1nc(Cl)c(Cl)n1Cc1ccc(-n2cccc2C(=O)O)cc1 [Example 1, 1-[4-[(2-n-Butyl-4,5-dichloro-imidazolyl)methyl]phenyl]-1H-pyrrole-2-carboxylic Acid]
Assay C Inhibition (AII pressor response): 74% | Assay C Duration (AII pressor response): 5 to 10 min | IC50 [1]: 5.8 µM | melting point: 181 to 182 °C | Assay B pA2 (rabbit aortic rings): 5.6

CCCCc1nc(Cl)c(CO)n1Cc1ccc(-n2cccc2C(=O)O)cc1 [Example 2]
Assay C Inhibition (AII pressor response): 92% | Assay C Duration (AII pressor response): 20 to 30 min

CCCCc1nc(CO)c(Cl)n1Cc1ccc(-n2cccc2C(=O)O)cc1 [Example 3]
melting point: 180 to 181 °C
